Legend:
Type in all cases: in vivo
[1] = system: Alopecurus myosuroides (ALOMY); assay: Pre-emergence biological efficacy, glasshouse pot test; conditions: evaluated after 13 days, 100=total damage, 0=no damage, read-out: Percentage damage caused to weed species, pre-emergence, ALOMY; for pest or weed control at 1000 g/ha: 312 h, 1,000 g/ha
Method in brief: (§1)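 Seeds were sown in standard soil, held one day in a glasshouse (24/16 °C day/night, 14 h light, 65% humidity), then sprayed pre-emergence with compound formulated in acetone/water (50:50) with 0.5% Tween 20 at 1000 or 250 g/ha. Plants were watered twice daily, and damage was scored after 13 days (0 = none, 100 = total).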

[2] = system: Amaranthus retroflexus (AMARE); assay: as above; conditions: evaluated after 13 days, 100=total damage, 0=no damage, read-out: Percentage damage caused to weed species, pre-emergence, AMARE; for pest or weed control at 1000 g/ha: 312 h, 1,000 g/ha
Method in brief: as §1

[3] = system: Echinochloa crus-galli (ECHCG); assay: as above; conditions: evaluated after 13 days, 100=total damage, 0=no damage, read-out: Percentage damage caused to weed species, pre-emergence, ECHCG; for pest or weed control at 1000 g/ha: 312 h, 1,000 g/ha
Method in brief: as §1

[4] = system: Ipomea hederaceae (IPOHE); assay: as above; conditions: Ipomoea hederacea, evaluated after 13 days, 100=total damage, 0=no damage, read-out: Percentage damage caused to weed species, pre-emergence, IPOHE; for pest or weed control at 1000 g/ha: 312 h, 1,000 g/ha
Method in brief: as §1

[5] = system: Setaria faberi (SETFA); assay: as above; conditions: evaluated after 13 days, 100=total damage, 0=no damage, read-out: Percentage damage caused to weed species, pre-emergence, SETFA; for pest or weed control at 1000 g/ha: 312 h, 1,000 g/ha
Method in brief: as §1

[6] = system: Solanum nigrum (SOLNI); assay: as above; conditions: evaluated after 13 days, 100=total damage, 0=no damage, read-out: Percentage damage caused to weed species, pre-emergence, SOLNI; for pest or weed control at 1000 g/ha: 312 h, 1,000 g/ha
Method in brief: as §1

[7] = system: Alopecurus myosuroides (ALOMY); assay: Post-emergence biological efficacy, glasshouse pot test; conditions: evaluated after 13 days, 100=total damage, 0=no damage, read-out: Percentage damage caused to weed species, post-emergence, ALOMY; for pest or weed control at 1000 g/ha: 312 h, 1,000 g/ha
Method in brief: (§2)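 Weed seedlings raised in standard soil for 8 days in glasshouse (24/16 °C day/night, 14 h light, 65% humidity) were sprayed with compound in acetone/water (50:50) with 0.5% Tween 20 at 1000 or 250 g/ha. Damage scored visually after 13 days (0 = none, 100 = total).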

[8] = system: Amaranthus retroflexus (AMARE); assay: as above; conditions: evaluated after 13 days, 100=total damage, 0=no damage, read-out: Percentage damage caused to weed species, post-emergence, AMARE; for pest or weed control at 1000 g/ha: 312 h, 1,000 g/ha
Method in brief: as §2

[9] = system: Echinochloa crus-galli (ECHCG); assay: as above; conditions: evaluated after 13 days, 100=total damage, 0=no damage, read-out: Percentage damage caused to weed species, post-emergence, ECHCG; for pest or weed control at 1000 g/ha: 312 h, 1,000 g/ha
Method in brief: as §2

[10] = system: Ipomea hederaceae (IPOHE); assay: as above; conditions: Ipomoea hederacea, evaluated after 13 days, 100=total damage, 0=no damage, read-out: Percentage damage caused to weed species, post-emergence, IPOHE; for pest or weed control at 1000 g/ha: 312 h, 1,000 g/ha
Method in brief: as §2

[11] = system: Setaria faberi (SETFA); assay: as above; conditions: evaluated after 13 days, 100=total damage, 0=no damage, read-out: Percentage damage caused to weed species, post-emergence, SETFA; for pest or weed control at 1000 g/ha: 312 h, 1,000 g/ha
Method in brief: as §2

[12] = system: Solanum nigrum (SOLNI); assay: as above; conditions: evaluated after 13 days, 100=total damage, 0=no damage, read-out: Percentage damage caused to weed species, post-emergence, SOLNI; for pest or weed control at 1000 g/ha: 312 h, 1,000 g/ha
Method in brief: as §2

Row | Compound | pest or weed control at 1000 g/ha [1] [%] | pest or weed control at 1000 g/ha [2] [%] | pest or weed control at 1000 g/ha [3] [%] | pest or weed control at 1000 g/ha [4] [%] | pest or weed control at 1000 g/ha [5] [%] | pest or weed control at 1000 g/ha [6] [%] | pest or weed control at 1000 g/ha [7] [%] | pest or weed control at 1000 g/ha [8] [%] | pest or weed control at 1000 g/ha [9] [%] | pest or weed control at 1000 g/ha [10] [%] | pest or weed control at 1000 g/ha [11] [%] | pest or weed control at 1000 g/ha [12] [%] | other results
1 | COC(=O)c1nc(Cl)cc(NCC2CC2)c1Cl [Compound 1-2, 4-Cyclopropylmethyl-amino-3,6-dichloro-pyridine-2-carboxylic acid methyl ester] | 80 | 100 | 90 | 100 | 90 | 100 | 90 | 100 | 70 | 80 | 90 | 90 | –
2 | C=Cc1c(NCc2ccccc2)cc(Cl)nc1C(=O)OC [Compound 2-12, 6-Chloro-3-ethenyl-4-phenylmethyl-amino-pyridine-2-carboxylic acid methyl ester] | 80 | 100 | 30 | 80 | 80 | 100 | 60 | 100 | 50 | 70 | 80 | 100 | –
3 | C=Cc1c(NCc2ccco2)cc(-c2ccc(Cl)c(N(C)C)c2F)nc1C(=O)OC [Compound 26-255, 6-(4-Chloro-3-dimethyl-amino-2-fluoro-phenyl)-3-ethenyl-4-[(furan-2-ylmethyl)-amino]-pyridine-2-carboxylic acid methyl ester] | 10 | 30 | 20 | 10 | 10 | 70 | 0 | 20 | 0 | 10 | 0 | 70 | –
4 | COC(=O)c1nc(Cl)c(Cl)c(NCc2ccccc2[N+](=O)[O-])c1C(F)(F)F [Compound 15-444, 5,6-dichloro-4-[(2-nitrophenyl-methyl)-amino]-3-trifluoromethyl-pyridine-2-carboxylic acid methyl ester] | 0 | 30 | 0 | 50 | 0 | 30 | 10 | 100 | 50 | 50 | 40 | 90 | –
5 | COC(=O)c1nc(Cl)c(F)c(NCc2ncccc2Cl)c1Br [Compound 32-29, 3-Bromo-6-chloro-4-[(3-chloro-pyridin-2-ylmethyl)-amino]-5-fluoro-pyridine-2-carboxylic acid methyl ester] | – | – | – | – | – | – | – | – | – | – | – | – | pest or weed control at 250 g/ha ([1]; 312 h, 250 g/ha): 10%; pest or weed control at 250 g/ha ([2]; 312 h, 250 g/ha): 90%; pest or weed control at 250 g/ha ([3]; 312 h, 250 g/ha): 10%; pest or weed control at 250 g/ha ([4]; 312 h, 250 g/ha): 70%; pest or weed control at 250 g/ha ([5]; 312 h, 250 g/ha): 0%; pest or weed control at 250 g/ha ([6]; 312 h, 250 g/ha): 80%; pest or weed control at 250 g/ha ([7]; 312 h, 250 g/ha): 20%; pest or weed control at 250 g/ha ([8]; 312 h, 250 g/ha): 70%; pest or weed control at 250 g/ha ([9]; 312 h, 250 g/ha): 50%; pest or weed control at 250 g/ha ([10]; 312 h, 250 g/ha): 60%; pest or weed control at 250 g/ha ([11]; 312 h, 250 g/ha): 60%; pest or weed control at 250 g/ha ([12]; 312 h, 250 g/ha): 80%
6 | C=Cc1c(NCc2ccco2)cc(Cl)nc1C(=O)OC [Compound 26-12, 6-Chloro-3-ethenyl-4-[(furan-2-ylmethyl)-amino]-pyridine-2-carboxylic acid methyl ester] | 90 | 100 | 90 | 90 | 100 | 100 | 80 | 100 | 80 | 70 | 90 | 100 | –
7 | COC(=O)c1nc(Cl)cc(NCc2cccnc2)c1Cl [Compound 78-2, 3,6-Dichloro-4-(pyridin-3-ylmethylamino)-pyridine-2-carboxylic acid methyl ester] | 40 | 100 | 20 | 90 | 50 | 100 | 20 | 100 | 20 | 70 | 50 | 100 | –
8 | COC(=O)c1nc(Cl)cc(NCC2CCCO2)c1Cl (stereo not drawn) [Compound 70-2, 3,6-Dichloro-4-(tetrahydrofuran-2-ylmethylamino)-pyridine-2-carboxylic acid methyl ester] | 30 | 100 | 20 | 70 | 80 | 100 | 40 | 100 | 30 | 70 | 60 | 100 | –
9 | C=Cc1c(NCc2ccccc2Cl)cc(Cl)nc1C(=O)OC [Compound 3-12, 6-Chloro-4-[(2-chlorophenyl-methyl)-amino]-3-ethenyl-pyridine-2-carboxylic acid methyl ester] | 20 | 100 | 0 | 50 | 10 | 90 | 0 | 100 | 20 | 40 | 10 | 90 | –

Source: patent US20120100990A1, “4 -AMINOPICOLINATES AND THEIR USE AS HERBICIDES” (SYNGENTA CROP PROTECTION LLC, priority 2009, published 2012)
